pEC50: −log10 of the molar value.
Test system: HBV
Test: In-vitro anti-HBV activity in stable HBV-producing cell line (HepG2.2.15), HBV DNA by qPCR
Type: cell-based
Conditions: Hepatitis B virus, 168 h; HepG2.2.15 cells, HBV DNA in culture fluid, day 7, top concentration 16.4 μM
Experimental: HBV DNA contents in cell culture fluid were detected by the qPCR-based assay and 50% effective concentration (EC50) values of the compounds against HBV were calculated. Specific procedures are as follows:
HepG2.2.15 cells were seeded into each well of 96-well plates, 40,000 cells per well. Cells were treated with cell culture medium containing compounds with different concentrations for 24 hours after cell seeding. The final concentration of each compound was 16.4 μM in each well and each compound was diluted to desired concentration using 3-fold gradient dilution protocol, 9 diluted points in duplicate. The culture mediums containing the compounds were refreshed on day 4 post cell seeding. Culture media were collected from the HepG2.2.15 plates on day 7 post cell seeding followed by HBV DNA extraction.
HBV DNA extraction: The HBV DNA extraction was performed using QIAamp 96 DNA Blood Kit (QIAGEN 51161).
PCR for quantification: PCR mix was prepared according to PCR system. PCR mix was dispensed to 96-well optical reaction plates (special for quantification). The standard diluted proportionally was added. Then the sample was added; The plates were sealed with optical adhesive film; PCR system was performed according to programs.
Percentage of HBV inhibition of DNA replication by compound was calculated using the following equation: % Inh.=[1-HBV DNA quantity of sample/HBV DNA quantity of DMSO control]×100.
Calculating EC50 value of compounds to HBV replication: the EC50 values were calculated based on “four-parameter logistic equation” and using GraphPad Prism 5 analysis software.

SMILES: CCOC(=O)C1=C(CN2CCOC(CCC(=O)O)C2)NC(c2nccs2)=NC1c1ccc(F)cc1Br (racemic) [contrast 1, 3-(4-((6-(2-bromo-4-fluorophenyl)-5-(ethoxycarbonyl)-2-(thiazol-2-yl)-3,6-dihydropyrimidin-4-yl)methyl)morpholin-2-yl)propanoic acid, reference compound]
- pEC50: 6.59

SMILES: CCOC(=O)C1=C(CN2CCOC(CCC(=O)O)C2)NC(c2nccs2)=NC1c1ccc(F)cc1Cl (racemic) [contrast 2, 3-(4-((6-(2-chloro-4-fluorophenyl)-5-(ethoxycarbonyl)-2-(thiazol-2-yl)-3,6-dihydropyrimidin-4-yl)methyl)morpholin-2-yl)propanoic acid, reference compound]
- pEC50: 6.44

SMILES: COC(=O)C1=C(CN2CCOC(CCC(=O)O)C2)NC(c2nccs2)=NC1c1ccc(F)cc1Cl (racemic) [contrast 3, 3-(4-((6-(2-chloro-4-fluorophenyl)-5-(methoxycarbonyl)-2-(thiazol-2-yl)-3,6-dihydropyrimidin-4-yl)methyl)morpholin-2-yl)propanoic acid, reference compound]
- pEC50: 6.54

SMILES: COC(=O)C1=C(CN2CCOC(CCC(=O)O)C2)NC(c2nccs2)=NC1c1ccc(F)cc1Br (racemic) [contrast 4, 3-(4-((6-(2-bromo-4-fluorophenyl)-5-(methoxycarbonyl)-2-(thiazol-2-yl)-3,6-dihydropyrimidin-4-yl)methyl)morpholin-2-yl)propanoic acid, reference compound]
- pEC50: 6.60

SMILES: CCOC(=O)C1=C(CN2CCOC(CCC(=O)O)C2)NC(c2nccs2)=NC1c1ccc(Cl)cc1Cl (racemic) [contrast 5, 3-(4-((6-(2,4-dichlorophenyl)-5-(ethoxycarbonyl)-2-(thiazol-2-yl)-3,6-dihydropyrimidin-4-yl)methyl)morpholin-2-yl)propanoic acid, reference compound]
- pEC50: 6.64

SMILES: COC(=O)C1=C(CN2CCOC(CCC(=O)O)C2)NC(c2nccs2)=NC1c1ccc(Cl)cc1Cl (racemic) [contrast 6, 3-(4-((6-(2,4-dichlorophenyl)-5-(methoxycarbonyl)-2-(thiazol-2-yl)-3,6-dihydropyrimidin-4-yl)methyl)morpholin-2-yl)propanoic acid, reference compound]
- pEC50: 6.68

SMILES: CCOC(=O)C1=C(CN2CCOCC2CCC(=O)O)NC(c2nccs2)=NC1c1ccc(F)cc1Cl (racemic) [contrast 7, 3-(4-((6-(2-chloro-4-fluorophenyl)-5-(ethoxycarbonyl)-2-(thiazol-2-yl)-3,6-dihydropyrimidin-4-yl)methyl)morpholin-3-yl)propanoic acid, reference compound]
- pEC50: 7.04

SMILES: COC(=O)C1=C(CN2CCOCC2CCC(=O)O)NC(c2nccs2)=NC1c1ccc(F)cc1Cl (racemic) [contrast 8, 3-(4-((6-(2-chloro-4-fluorophenyl)-5-(methoxycarbonyl)-2-(thiazol-2-yl)-3,6-dihydropyrimidin-4-yl)methyl)morpholin-3-yl)propanoic acid, reference compound]
- pEC50: 7.05

SMILES: CCOC(=O)C1=C(CN2CCOCC2CCC(=O)O)NC(c2nccs2)=NC1c1ccc(Cl)cc1Cl (racemic) [contrast 9, 3-(4-((6-(2,4-dichlorophenyl)-5-(ethoxycarbonyl)-2-(thiazol-2-yl)-3,6-dihydropyrimidin-4-yl)methyl)morpholin-3-yl)propanoic acid, reference compound]
- pEC50: 7.20

SMILES: COC(=O)C1=C(CN2CCOCC2CCC(=O)O)NC(c2nccs2)=NC1c1ccc(Cl)cc1Cl (racemic) [contrast 10, 3-(4-((6-(2,4-dichlorophenyl)-5-(methoxycarbonyl)-2-(thiazol-2-yl)-3,6-dihydropyrimidin-4-yl)methyl)morpholin-3-yl)propanoic acid, reference compound]
- pEC50: 7.23

SMILES: CCOC(=O)C1=C(CN2CCOCC2CCC(=O)O)NC(c2nccs2)=NC1c1ccc(F)cc1Br (racemic) [contrast 11, 3-(4-((6-(2-bromo-4-fluorophenyl)-5-(ethoxycarbonyl)-2-(thiazol-2-yl)-3,6-dihydropyrimidin-4-yl)methyl)morpholin-3-yl)propanoic acid, reference compound]
- pEC50: 7.10

SMILES: COC(=O)C1=C(CN2CCOCC2CCC(=O)O)NC(c2nccs2)=NC1c1ccc(F)cc1Br (racemic) [contrast 12, 3-(4-((6-(2-bromo-4-fluorophenyl)-5-(methoxycarbonyl)-2-(thiazol-2-yl)-3,6-dihydropyrimidin-4-yl)methyl)morpholin-3-yl)propanoic acid, reference compound]
- pEC50: 7.12

SMILES: CCOC(=O)C1=C(CN2CCO[C@H](CC(C)C(=O)O)C2)NC(c2nccs2)=N[C@H]1c1ccc(F)cc1Br (stereo partly drawn) [Example 3, 3-((R)-4-(((R)-6-(2-Bromo-4-fluorophenyl)-5-(ethoxycarbonyl)-2-(thiazol-2-yl)-3,6-dihydropyrimidin-4-yl)methyl)morpholin-2-yl)-2-methylpropanoic acid]
- pEC50: 6.87

SMILES: CCOC(=O)C1=C(CN2CCO[C@H](C(C)CC(=O)O)C2)NC(c2nccs2)=N[C@H]1c1ccc(F)cc1Br (stereo partly drawn) [Example 4, 3-((R)-4-(((R)-6-(2-Bromo-4-fluorophenyl)-5-(ethoxycarbonyl)-2-(thiazol-2-yl)-3,6-dihydropyrimidin-4-yl)methyl)morpholin-2-yl)butanoic acid]
- pEC50: 6.94

SMILES: CCOC(=O)C1=C(CN2CCO[C@H](C)[C@H]2CCC(=O)O)NC(c2nccs2)=N[C@H]1c1ccc(F)cc1Br [Example 5, 3-((2R,3R)-4-(((R)-6-(2-Bromo-4-fluorophenyl)-5-(ethoxycarbonyl)-2-(thiazol-2-yl)-3,6-dihydropyrimidin-4-yl)methyl)-2-methylmorpholin-3-yl)propanoic acid]
- pEC50: 6.51

SMILES: CCOC(=O)C1=C(CN2CCO[C@H](CCCCC(=O)O)C2)NC(c2nccs2)=N[C@H]1c1ccc(F)cc1Br [Example 7, 5-((R)-4-(((R)-6-(2-Bromo-4-fluorophenyl)-5-(ethoxycarbonyl)-2-(thiazol-2-yl)-3,6-dihydropyrimidin-4-yl)methyl)morpholin-2-yl)pentanoic acid]
- pEC50: 7.14

SMILES: CCOC(=O)C1=C(CN2CCOC[C@H]2CCC(=O)O)NC(c2nccs2)=N[C@H]1c1ccc(F)cc1Br [Example 8, 3-((R)-4-(((R)-6-(2-Bromo-4-fluorophenyl)-5-(ethoxycarbonyl)-2-(thiazol-2-yl)-3,6-dihydropyrimidin-4-yl)methy)morpholin-3-yl)propanoic acid]
- pEC50: 7.60

SMILES: COC(=O)C1=C(CN2CCOC[C@H]2CCC(=O)O)NC(c2nccs2)=N[C@H]1c1ccc(F)cc1Br [Example 14, 3-((R)-4-(((R)-6-(2-Bromo-4-fluorophenyl)-5-(methoxycarbonyl)-2-(thiazol-2-yl)-3,6-dihydropyrimidin-4-yl)methyl)morpholin-3-yl)propanoic acid]
- pEC50: 6.85

SMILES: CCOC(=O)C1=C(CN2CCOC[C@@H]2CCC(=O)O)NC(c2nccs2)=N[C@H]1c1ccc(F)cc1Br [Example 15, 3-((S)-4-(((R)-6-(2-Bromo-4-fluorophenyl)-5-(ethoxycarbonyl)-2-(thiazol-2-yl)-3,6-dihydropyrimidin-4-yl)methyl)morpholin-3-yl)propanoic acid]
- pEC50: 8.10

Reference: patent publication US9771358B2, “Dihydropyrimidine compounds and their application in pharmaceuticals” (SUNSHINE LAKE PHARMA CO., LTD., priority 2014, dated 2017)
